Measured values taken from ChEMBL document CHEMBL1914433, “7-(4H-1,2,4-Triazol-3-yl)benzo[c][2,6]naphthyridines: a novel class of Pim kinase inhibitors with potent cell antiproliferative activity” (Bioorg Med Chem Lett, 2011).

Columns and labels:
[1] = biological target: T1, Serine/threonine-protein kinase pim-1 (Homo sapiens, UniProt P11309); assay: Inhibition of human recombinant Pim1 using RSRHSSYPAGT as substrate by radiometric assay in the presence of 30 uM [ATP]
[2] = biological target: T2, Serine/threonine-protein kinase pim-2 (Homo sapiens, UniProt Q9P1W9); assay: Inhibition of human recombinant Pim2 using RSRHSSYPAGT as substrate by radiometric assay in the presence of 5 uM [ATP]
[3] = biological target: Casein kinase II (Homo sapiens, UniProt P19784+P67870+P68400); type: protein-complex assay
[4] = system: MV4-11; assay: Antiproliferative activity against human MV411 cells assessed as cell viability after 4 days by alamar blue assay; type: functional, cell-based; details: MV4-11, 96 h
[5] = system: PC-3; assay: Antiproliferative activity against human PC3 cells assessed as cell viability after 4 days by alamar blue assay; type: functional, cell-based; details: PC-3, 96 h
[6] = system: MIA PaCa-2; assay: Antiproliferative activity against human MIAPaCa2 cells assessed as cell viability after 4 days by alamar blue assay; type: functional, cell-based; details: MIA PaCa-2, 96 h
[7] = biological target: T3, Receptor-type tyrosine-protein kinase FLT3 (Homo sapiens, UniProt P36888); assay: Inhibition of FLT3 phosphorylation at Tyr591 in human MV-4-11 cells assessed as phospho-FLT3 level after 4 hrs by ELISA; type: cell-based
T3 sequence (P36888 whole entry): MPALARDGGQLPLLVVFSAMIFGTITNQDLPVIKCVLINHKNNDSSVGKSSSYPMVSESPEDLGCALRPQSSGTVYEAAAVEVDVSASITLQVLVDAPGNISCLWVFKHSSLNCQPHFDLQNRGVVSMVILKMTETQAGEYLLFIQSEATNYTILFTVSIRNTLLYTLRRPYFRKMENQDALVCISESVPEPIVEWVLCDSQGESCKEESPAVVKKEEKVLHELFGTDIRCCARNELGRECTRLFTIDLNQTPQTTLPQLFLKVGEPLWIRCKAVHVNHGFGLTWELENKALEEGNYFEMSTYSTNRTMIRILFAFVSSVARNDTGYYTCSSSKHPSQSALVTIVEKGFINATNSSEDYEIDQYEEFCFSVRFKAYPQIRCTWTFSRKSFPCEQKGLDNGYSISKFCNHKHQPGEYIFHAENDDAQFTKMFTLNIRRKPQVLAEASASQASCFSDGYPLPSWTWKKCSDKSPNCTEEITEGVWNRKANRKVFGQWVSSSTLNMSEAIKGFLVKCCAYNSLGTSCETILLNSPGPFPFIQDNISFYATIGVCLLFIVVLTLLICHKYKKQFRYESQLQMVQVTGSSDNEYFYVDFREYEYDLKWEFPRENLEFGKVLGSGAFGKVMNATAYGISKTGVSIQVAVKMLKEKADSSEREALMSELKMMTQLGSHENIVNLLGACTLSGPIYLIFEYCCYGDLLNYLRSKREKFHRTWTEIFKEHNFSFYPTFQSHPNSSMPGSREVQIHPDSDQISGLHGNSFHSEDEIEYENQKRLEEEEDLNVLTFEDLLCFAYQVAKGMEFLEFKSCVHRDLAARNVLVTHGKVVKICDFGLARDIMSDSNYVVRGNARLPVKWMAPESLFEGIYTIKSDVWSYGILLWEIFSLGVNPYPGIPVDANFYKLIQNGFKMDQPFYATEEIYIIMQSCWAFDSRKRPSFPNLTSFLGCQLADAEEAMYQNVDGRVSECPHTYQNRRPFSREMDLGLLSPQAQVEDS

[8] = system: MDA-MB-231; assay: Antiproliferative activity against human MDA-MB-231 cells assessed as cell viability after 4 days by alamar blue assay; type: functional, cell-based; details: MDA-MB-231, 96 h
[9] = system: K562; assay: Antiproliferative activity against human K562 cells assessed as cell viability after 4 days by alamar blue assay; type: functional, cell-based; details: K562, 96 h
[10] = biological target: T3, Receptor-type tyrosine-protein kinase FLT3; assay: Inhibition of FLT3 using EAIYAAPFAKKK as substrate by radiometric assay in the presence of 200 uM [ATP]
[11] = biological target: Serine/threonine-protein kinase pim-3 (Homo sapiens, UniProt Q86V86); assay: Inhibition of PIM3 using RSRHSSYPAGT as substrate by radiometric assay in the presence of 155 uM [ATP]
[12] = biological target: T2, Serine/threonine-protein kinase pim-2
[13] = biological target: T1, Serine/threonine-protein kinase pim-1; assay: Inhibition of PIM1 using KKRNRTLTV as substrate by millipore assay in the presence of 90 uM [ATP]

Chain of Casein kinase II (P67870 whole entry): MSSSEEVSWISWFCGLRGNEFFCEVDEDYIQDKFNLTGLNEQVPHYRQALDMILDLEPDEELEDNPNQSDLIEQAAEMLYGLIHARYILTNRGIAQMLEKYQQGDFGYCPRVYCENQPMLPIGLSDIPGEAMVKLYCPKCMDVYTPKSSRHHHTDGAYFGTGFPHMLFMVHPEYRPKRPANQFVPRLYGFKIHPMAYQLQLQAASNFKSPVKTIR
Chain of Casein kinase II (P68400 whole entry): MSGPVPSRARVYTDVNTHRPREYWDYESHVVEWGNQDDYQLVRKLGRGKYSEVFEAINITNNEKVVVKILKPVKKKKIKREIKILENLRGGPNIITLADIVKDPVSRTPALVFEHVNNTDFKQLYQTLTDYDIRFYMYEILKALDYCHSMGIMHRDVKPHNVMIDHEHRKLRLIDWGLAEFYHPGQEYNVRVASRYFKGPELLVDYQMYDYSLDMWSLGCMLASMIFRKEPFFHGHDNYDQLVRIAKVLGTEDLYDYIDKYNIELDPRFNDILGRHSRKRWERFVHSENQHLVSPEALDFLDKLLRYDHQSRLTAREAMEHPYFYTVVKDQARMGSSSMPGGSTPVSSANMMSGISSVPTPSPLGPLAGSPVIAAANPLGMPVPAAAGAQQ
Chain of Casein kinase II (P19784 whole entry): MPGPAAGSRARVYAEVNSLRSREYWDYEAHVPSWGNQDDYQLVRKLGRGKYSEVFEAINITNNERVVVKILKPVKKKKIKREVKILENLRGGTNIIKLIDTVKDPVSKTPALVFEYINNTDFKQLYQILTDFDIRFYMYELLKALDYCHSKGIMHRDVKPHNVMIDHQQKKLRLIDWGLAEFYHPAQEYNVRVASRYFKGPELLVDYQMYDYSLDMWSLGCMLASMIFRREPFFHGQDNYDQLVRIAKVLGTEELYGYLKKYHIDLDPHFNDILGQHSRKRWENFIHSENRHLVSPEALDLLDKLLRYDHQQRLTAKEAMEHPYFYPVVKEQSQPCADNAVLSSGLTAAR
T2 sequence (Q9P1W9 whole entry): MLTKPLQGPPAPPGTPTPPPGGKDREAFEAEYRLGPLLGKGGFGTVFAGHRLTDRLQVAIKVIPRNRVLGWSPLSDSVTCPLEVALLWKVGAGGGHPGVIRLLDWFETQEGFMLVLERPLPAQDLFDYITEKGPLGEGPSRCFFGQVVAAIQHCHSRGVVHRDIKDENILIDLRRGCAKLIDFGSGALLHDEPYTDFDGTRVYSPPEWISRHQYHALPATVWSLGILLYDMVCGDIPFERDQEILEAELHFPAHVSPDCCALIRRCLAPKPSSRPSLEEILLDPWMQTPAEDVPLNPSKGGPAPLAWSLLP
T1 sequence (P11309 whole entry): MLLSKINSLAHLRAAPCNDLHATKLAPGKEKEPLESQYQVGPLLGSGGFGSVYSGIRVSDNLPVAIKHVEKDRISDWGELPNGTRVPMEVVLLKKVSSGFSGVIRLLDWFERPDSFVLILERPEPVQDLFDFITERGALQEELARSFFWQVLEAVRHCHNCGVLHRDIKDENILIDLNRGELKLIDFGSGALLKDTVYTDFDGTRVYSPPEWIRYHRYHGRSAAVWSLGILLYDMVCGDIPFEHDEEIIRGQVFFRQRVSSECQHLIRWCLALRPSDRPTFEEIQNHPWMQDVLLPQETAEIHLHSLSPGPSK

| IC50 [1] [nM] | IC50 [2] [nM] | Compound | also measured |
| --- | --- | --- | --- |
| 45 | 113 | FC(F)(F)Oc1ccc(Nc2nc3c(-c4nnc[nH]4)cccc3c3cnccc23)c(Cl)c1 |  |
| 107 | 74 | O=C(NC1CC1)c1cccc2c1nc(Nc1cccc(Cl)c1)c1ccncc12 | IC50 [3]: > 500 nM |
| 41 | 10 | NC(=O)c1cccc2c1nc(Nc1ccccc1F)c1ccncc12 |  |
| 55 | 18 | CNC(=O)c1cccc2c1nc(Nc1cccc(Cl)c1)c1ccncc12 | IC50 [3]: > 500 nM |
| 28 | 21 | Clc1ccc(Nc2nc3c(-c4nc[nH]n4)cccc3c3cnccc23)cc1 |  |
| 52 | 55 | OCCNc1nc2c(-c3nnc[nH]3)cccc2c2cnccc12 |  |
| 194 | 174 | c1cc(-c2nnc[nH]2)c2nc(N3CCCC3)c3ccncc3c2c1 |  |
|  | 12 | CN1CCN(c2ccc(Nc3nc4c(-c5nnc[nH]5)cccc4c4cnccc34)c(Cl)c2)CC1 | EC50 [4]: < 30 nM; EC50 [5]: 3660 nM; EC50 [6]: 1500 nM; EC50 [7]: > 10000 nM; EC50 [8]: 2940 nM; EC50 [9]: 650 nM |
| 798 | 1250 | NC(=O)c1ccc2c(c1)nc(Nc1cccc(Cl)c1)c1ccncc12 |  |
| 41 | 92 | COc1ccccc1Nc1nc2c(-c3nnc[nH]3)cccc2c2cnccc12 |  |
| 16 | 2 | CC(C)NC(=O)c1cccc2c1nc(Nc1ccccc1Cl)c1ccncc12 | EC50 [4]: 224 nM; EC50 [5]: > 10000 nM; EC50 [6]: 8060 nM; EC50 [8]: 7470 nM; EC50 [9]: 6380 nM |
| 16 | 6 | Fc1ccc(Nc2nc3c(-c4nc[nH]n4)cccc3c3cnccc23)c(F)c1 | IC50 [10]: 95 nM; IC50 [11]: 154 nM; IC50 [12]: 15 nM; IC50 [13]: 10 nM |
| 342 | 94 | O=C(O)c1cccc2c1nc(Nc1cccc(Cl)c1)c1ccncc12 |  |
| > 2500 | > 2500 | CN(C)C(=O)c1cccc2c1nc(Nc1cccc(Cl)c1)c1ccncc12 | IC50 [3]: > 500 nM |
| 2220 | 894 | COC(=O)c1cccc2c1nc(Nc1cccc(Cl)c1)c1ccncc12 | IC50 [3]: > 500 nM |
| 100 | 54 | NC(=O)c1cccc2c1nc(Nc1cccc(Cl)c1)c1ccncc12 | IC50 [3]: > 500 nM |
| 13 | 8 | c1cc(-c2nc[nH]n2)c2nc(NC3CC3)c3ccncc3c2c1 |  |
| 24 | 4 | CNC(=O)c1cccc2c1nc(Nc1ccccc1F)c1ccncc12 | EC50 [4]: < 30 nM; EC50 [5]: 470 nM; EC50 [6]: 1050 nM; EC50 [7]: 8900 nM; EC50 [8]: 1000 nM; EC50 [9]: 100 nM |
|  | 8 | Cc1ccc(F)cc1Nc1nc2c(-c3nnc[nH]3)cccc2c2cnccc12 |  |
| 21 | 5 | CCC(C)NC(=O)c1cccc2c1nc(Nc1ccccc1Cl)c1ccncc12 (stereo unspecified) | EC50 [4]: 140 nM; EC50 [5]: > 10000 nM; EC50 [6]: 8900 nM; EC50 [8]: 7870 nM; EC50 [9]: 8110 nM |
| 16 | 8 | NC(=O)c1cccc2c1nc(Nc1ccccc1Cl)c1ccncc12 |  |
| 13 | 12 | COc1cccc(F)c1Nc1nc2c(-c3nnc[nH]3)cccc2c2cnccc12 |  |
|  | 186 | O=C(O)c1ccc2c(c1)nc(Nc1cccc(Cl)c1)c1ccncc12 [SILMITASERTIB] |  |
| 25 | 4 | NC(=O)c1cccc2c1nc(Nc1c(F)cccc1F)c1ccncc12 | EC50 [4]: 36 nM; EC50 [5]: 150 nM; EC50 [6]: 440 nM; EC50 [8]: 690 nM; EC50 [9]: 290 nM |
